# Measurements: US8242086B2, “Methods and compositions for treating disorders caused by a deficiency in a gene product of a CLN gene” (Duke University, priority 2008, dated 2012)
# Entries after “also recorded” stand apart in the source; their conditions may differ.
# Tests used:
# [1] = Intraperitoneal GalCer injection of normal mice, GalCer mass in kidney subcellular fractions (TLC); type: in vivo, mouse; conditions: intraperitoneal injection (α-GalCer), two days prior to sacrifice
# Description: Mouse experiments. Six homozygous Cln3^Δex7/8 adult 60 day old mice and six age and sex-matched control mice were deeply anesthetized by xylazine/ketamine and sacrificed by cardiac perfusion of ice-cold phosphate-buffered saline (PBS, pH 7.4), followed by periodate-lysine-phosphate (PLP) fixative (2% paraformaldehyde, 0.01M sodium periodate and 0.1M lysine phosphate buffer, pH 7.4). Mouse brains were snap-frozen in liquid nitrogen. Three of the frozen brains from each group were used for subcellular fractionation and thin layer chromatography, and frozen sections were obtained for fluorescence immunocytochemistry from the rest. At the age of 60 days and two days prior to sacrifice, three of six control mice were injected with α-GalCer at a dose of […] or vehicle intraperitoneally. They were deeply anesthetized by xylazine/ketamine and sacrificed by cardiac perfusion of ice-cold phosphate-buffered saline (PBS, pH 7.4), followed by periodate-lysine-phosphate (PLP) fixative (2% paraformaldehyde, 0.01M sodium periodate and 0.1M lysine phosphate buffer, pH 7.4). […]
# Thin Layer Chromatography for Quantification of Galactosylceramide. […] Lipid quantification was accomplished with ImageQuant™ program and normalized with respect to phosphate content.
# [2] = molecular target: T1, CLN6 protein (Homo sapiens, UniProt Q9NWW5); assay: Protein-lipid overlay assay, CLN6 protein; type: binding; conditions: lysates from normal cells, custom made sphingostrips
# T1 construct: endogenous in cells
# T1 sequence (Q9NWW5 1-311): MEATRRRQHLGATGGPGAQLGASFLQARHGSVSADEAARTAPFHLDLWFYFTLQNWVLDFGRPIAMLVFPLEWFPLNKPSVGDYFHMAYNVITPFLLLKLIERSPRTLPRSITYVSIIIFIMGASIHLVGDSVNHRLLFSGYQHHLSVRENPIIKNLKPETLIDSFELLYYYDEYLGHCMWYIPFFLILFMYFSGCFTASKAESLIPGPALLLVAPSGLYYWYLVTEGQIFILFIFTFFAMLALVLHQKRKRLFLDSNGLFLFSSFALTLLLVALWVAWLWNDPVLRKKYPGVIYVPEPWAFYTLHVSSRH
# Experimental: Protein-lipid overlay assay. Membrane arrays (SPHINGOSTRIPS (Echelon Research Laboratories, Salt Lake City, Utah), or lipids were spotted on nitrocellulose membranes and dried for at least one hour. Membranes were blocked with 3% (wt/vol) Fatty Acid Free or FFA-BSA (Sigma-Aldrich, St. Louis, Mo.) in Tris-Buffered Saline Tween-20 (TBST) [150 mM NaCl/10 mM Tris.HCl (pH 8.0), and 0.1% (vol/vol) Tween-20] for 1 h at RT. Blocked membranes were incubated for 8 h at 4° C. with 2 mg/ml of total cell lysate.
# Fibroblasts overexpressing CLN3p (AC1 cells) and JNCL fibroblasts were used for the GalCer-CLN3 binding assay. The membranes were then washed five times for 5 min each with TBST. After washing, membranes were incubated with anti-CLN3, CLN1, CLN2, CLN6 or CLN8-antibodies overnight at 1:1000 dilution, followed by additional washing and incubation with horseradish peroxidase-conjugated anti-rabbit IgG goat antibody for 1 h at RT. After a final washing, enhanced chemiluminescence was used to detect binding of NCL proteins to sphingolipids. Intensity values were computed with an ImageJ software program.
# CLN1, CLN2, CLN6, CLN8 and CLN9 proteins also bind to lipids. The protein-lipid overlay assay, using custom made sphingostrips, lysates from normal cells and anti-CLN1, anti-CLN2-, anti-CLN6, and anti-CLN8-antibodies, established that CLN6 and CLN8 proteins bind to GalCer, CLN1, CLN2 and CLN6p bind lysophosphatidic acid (LPA) and sulfatide, and CLN8p binds ceramide (FIG. 5).
substance,measurement,setting,value
galactosylceramide [GalCer],kidney Golgi GalCer,[1],concomitant reduction in Golgi GalCer; also recorded: concomitant drop in Golgi GalCer
same,kidney lipid raft (plasma membrane) GalCer,[1],increase GalCer at the plasma membrane; also recorded: increases kidney lipid raft GalCer
same,binding of CLN6 protein to lipid,[2],bind
